Results on two compounds are retold here after PMC11847541, “Liver fatty acid binding protein FABP1 transfers substrates to cytochrome P450 4A11 for catalysis” (The Journal of Biological Chemistry, 2025).

“And” between values parts separate entries of the source, which are not always exact repeats. Equal values may be shown once. Read-outs that look alike come from different tables or passages of the source.

Data set [1] has as its target T1, FABP1 (Homo sapiens, UniProt P07148).
T1 construct: GST (N, cleaved yes); made in house; host or cells: Escherichia coli DH5α
T1 sequence (P07148 with tags, fused parts or gaps): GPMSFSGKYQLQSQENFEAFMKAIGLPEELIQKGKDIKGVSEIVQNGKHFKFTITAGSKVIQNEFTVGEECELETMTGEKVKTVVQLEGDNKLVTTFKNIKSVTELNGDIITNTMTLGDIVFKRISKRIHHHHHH
The experiment in a line: DAUDA displacement fluorescence titrations of DAUDA–FABP1 with fatty acids, fit in KinTek Explorer. The class given is binding. An excerpt: The FABP–DAUDA system was used to screen saturated fatty acids (C12 to C18) for binding to FABP, and the Kd values were estimated in competition with the fluorophore (using its known Kd) with the kinetic modeling software KinTek Explorer. The general model is shown in Fig. 5A, where the substrate is competed against the fluorescent DAUDA–FABP1 complex for binding, yielding a ternary DAUDA–FABP1–substrate complex that is accompanied by an attenuation in fluorescence.
Figure 5 Fluorescence titrations of DAUDA–FABP1 with fatty acids (“forward” titrations).A, model of all binding equilibria accounted for in the DAUDA displacement assays. In the fluorescence assays (λex = 335 nm), DAUDA (D) binds to FABP1 (F) to form a fluorescent (indicated with yellow flash) complex (FD), with which a lipid (S) is then competed against for binding. The binding of S attenuates the fluorescence (denoted with a smaller yellow flash) and forms a ternary complex (FDS). High concentrations of S may completely displace D to form FSS, a spectroscopically silent complex. Using this method, fluorescence titrations were carried out with the fatty acids (B) laurate, (C) myristate, (D) palmitate, (E) 16-hydroxypalmitate, and (F) stearate. Fluorescence at the emission maximum (482 nm) was monitored (as in Fig. 4) and normalized to the starting fluorescence (i.e., the FD complex prior to the addition of S). Each data point corresponds to one independent replicate. DAUDA, 11-dansylaminoundecanoic acid; FABP1, fatty acid binding protein.
For the titrations with lipids, solutions of FABP1 (0.5 μM) and DAUDA (0.25 μM) were prepared such that the fluorescent species was not present in excess ([75]). A baseline was recorded with phosphate buffer, and a starting (basis) spectrum was recorded of the FABP–DAUDA complex (1 ml). The lipid solutions were gradually added to the cuvette with gentle mixing (pipetting up and down ∼7× with a pipette tip), and spectra were recorded (Fig. S12A). Control titrations were also performed the same day with solvent alone (Fig. S12B) as a normalizing factor for the lipid titrations as fluorescence attenuation was also observed to a much lesser degree as a solvent effect (Fig. S12C, D). […] The data were processed such that within the lipid titration and the solvent titration, the F482 values were normalized to the starting value (the initial FABP1–DAUDA complex with nothing added, set to 100%). The relative fluorescence of the lipid titration was then normalized to the relative fluorescence of the solvent titration to adjust for fluorescence attenuation observed in the solvent titration (presumably from altering the fluorophore environment). Thus, the data were processed according to y=(F482/F482(initial))lipid/(F482/F482(initial))solvent , and the resulting values were plotted as a function of lipid concentration (Fig. S12E). The curve was imported into KinTek Explorer ([76]) and was fit to a kinetic model (Fig. S13) to determine the Kd values (Table 1). Within the KinTek software, all fluorescent species required fluorescence scaling factors to convert signal to concentration. Scaling factors for the FABP–DAUDA complex, FABP–DAUDA–lipid complex, and DAUDA alone were 460, 92, and 8, respectively.
Figure S12. Data processing for FABP1 titration with palmitate. Fluorescence spectrum of increasing additions of (A) palmitate (0-2 µM, added in C2H5OH) and (B) C2H5OH to a mixture of DAUDA (0.25 µM) and FABP1 (0.5 µM), performed as described in the Experimental Methods (see “Titrations of FABP1 with lipids, DAUDA”). C, fluorescence values at 482 nm (F482) from the titrations presented in parts A and B are normalized to the starting values (DAUDA-FABP1 complex, no volume added). Data are reported as a function of volume of titrant added to the cuvette (black, C2H5OH alone; red, palmitate in C2H5OH). […]

Data set [2] has as its target T2, P450 4A11 (Homo sapiens, UniProt Q02928).
T2 sequence (Q02928 5-519): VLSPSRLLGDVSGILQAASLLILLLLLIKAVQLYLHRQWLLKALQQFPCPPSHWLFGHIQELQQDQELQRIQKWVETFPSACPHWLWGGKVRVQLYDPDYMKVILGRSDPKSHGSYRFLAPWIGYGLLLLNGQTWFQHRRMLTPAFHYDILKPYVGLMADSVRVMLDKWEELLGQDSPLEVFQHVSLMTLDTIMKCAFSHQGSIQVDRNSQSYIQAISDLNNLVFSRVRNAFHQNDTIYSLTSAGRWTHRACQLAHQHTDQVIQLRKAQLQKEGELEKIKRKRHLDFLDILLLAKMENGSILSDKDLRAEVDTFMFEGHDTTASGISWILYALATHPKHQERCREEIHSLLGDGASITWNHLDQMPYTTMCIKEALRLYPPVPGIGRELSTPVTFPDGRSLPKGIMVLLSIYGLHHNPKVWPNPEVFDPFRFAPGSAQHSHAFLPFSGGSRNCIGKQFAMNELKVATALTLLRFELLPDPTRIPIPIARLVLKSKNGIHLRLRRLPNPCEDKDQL
The experiment in a line: Equilibrium binding titrations of P450 4A11 with lipids (heme Soret spectral shift). To be noted: for P450 heme Soret spectral shift induced: P450 4A11.
Protocol: Affinity of palmitate and 16-OH palmitate for P450 4A11 (1 μM) was assessed by monitoring the blue shift (from ∼420 nm to ∼390 nm) of the P450 heme Soret band as a substrate binds and displaces the sixth axial heme ligand (H2O) to yield pentacoordinated heme (“type I” shift) ([26]).
P450 4A11 (1 μM) was titrated with (A) palmitate and (B) 16-OH palmitate in a 1.0 cm pathlength cell. Difference plots were calculated from absorbance maxima (∼390 nm) and minima (∼420 nm), and the data were fit to a hyperbolic equation. The insets in each panel are the difference spectra between a cuvette that received the lipid substrate and a cuvette that received solvent alone. Each data point corresponds to one independent replicate.
Equilibrium binding titrations with P450 4A11 (1 μM) were performed in buffer (100 mM potassium phosphate [pH 7.4]) as described previously ([44], [56]). Briefly, a baseline was first acquired on an OLIS-Cary 14 spectrophotometer set to scan from 350 to 500 nm in 1 cm glass cuvettes. […] The cuvettes were mixed with a plumper after additions, and spectra were recorded. The spectra were exported into Microsoft Excel software, and the absorbance values at 418 nm were subtracted from those at 390 nm and the values were plotted as a function of lipid concentration.
Titration of P450 4A11 with DAUDA. The P450 concentration was 1 µM and the DAUDA concentration was varied using a geometric series from 1 nM to 10 µM. […] The increase in absorbance in the UV region is due to the strong chromophore in the DAUDA dansyl moiety (Fig. S8).

Where [3] appears, read: lipid binding to DAUDA-bound FABP1 (DAUDA displacement), read-out: Kd, FD + S ↔ FDS.
[4] abbreviates: lipid binding to apo-FABP1, estimated via kinetic modeling, read-out: Kd, F + S ↔ FS.
The mark [5] stands for this setting: lipid binding to ternary complex FDS (full displacement of DAUDA), low-affinity site, read-out: Kd, FDS + S ↔ FSS + D.

On to `O=C(O)CCCCCCCCCCCCCCCO` [16-OH Palmitate (C16), 16-hydroxypalmitate], for which, in data set [1] (lipid (S) binding to apo-FABP1 (F), kinetic modeling, on-rate 9.0 × 10^7 M^−1 s^−1), the “koff, F + S ↔ FS” value is 47 s⁻¹. For the same compound, the dissociation constant (Kd) was 15 µM in data set [1] (setting [3]); 0.52 µM in data set [1] (setting [4]); 63 µM in data set [1] (setting [5]); 270 ± 40 nM in data set [2] (read-out: Kd for P450 4A11, P450 4A11 1 μM, 100 mM potassium phosphate pH 7.4). The “koff, FD + S ↔ FDS” value in data set [1] (lipid binding to DAUDA-bound FABP1 (FD), on-rate 2.3 × 10^7 M^−1 s^−1) is 350 s⁻¹. Also, the “koff, FDS + S ↔ FSS + D” value in data set [1] (lipid binding to ternary complex FDS (full displacement of DAUDA)) was 1500 s⁻¹. In data set [2], the “P450 heme Soret spectral shift induced” value is reported as “reverse type I shift”.
In the case of `CCCCCCCCCCCCCCCC(=O)O` [Palmitate (C16), palmitate], the “affinity difference between the two FABP1 binding sites” value in data set [1] is given as over 250 fold. Further, the “koff of palmitate from FABP1 relative to binding of palmitate (1–10 μM) to P450 4A11” value in data set [1] (faster) is 10–100 fold. Also, the remaining activity at 0.01 µM in data set [1] (lipid 0.01 µM, FABP1 0.5 µM, DAUDA 0.25 µM, F482 normalized, read-out: % Fluorescence) came out at 91%. The remaining activity at 0.025 µM in data set [1] (lipid 0.025 µM, FABP1 0.5 µM, DAUDA 0.25 µM, F482 normalized) is 85.5%. In addition, the remaining activity at 0.05 µM in data set [1] (lipid 0.05 µM, FABP1 0.5 µM, DAUDA 0.25 µM, F482 normalized) was determined as 84.5%. Moreover, the remaining activity at 0.075 µM in data set [1] (lipid 0.075 µM, FABP1 0.5 µM, DAUDA 0.25 µM, F482 normalized) worked out at 79.1%. Also, the remaining activity at 0.1 µM in data set [1] (lipid 0.1 µM, FABP1 0.5 µM, DAUDA 0.25 µM, F482 normalized, read-out: % Fluorescence) is 74.5%. In data set [1] (lipid 0.15 µM, FABP1 0.5 µM, DAUDA 0.25 µM, F482 normalized), the remaining activity at 0.15 µM amounted to 67.2%. Also, the remaining activity at 0.2 µM in data set [1] (lipid 0.2 µM, FABP1 0.5 µM, DAUDA 0.25 µM, F482 normalized) came out at 60.3%. Further, the remaining activity at 0.25 µM in data set [1] (lipid 0.25 µM, FABP1 0.5 µM, DAUDA 0.25 µM, F482 normalized) is 55.8%. Also, the remaining activity at 0.35 µM in data set [1] (lipid 0.35 µM, FABP1 0.5 µM, DAUDA 0.25 µM, F482 normalized) came to 42.4%. Moreover, in data set [1] (lipid 0.45 µM, FABP1 0.5 µM, DAUDA 0.25 µM, F482 normalized), the remaining activity at 0.45 µM stood at 36.3%. Besides, in data set [1] (lipid 0.6 µM, FABP1 0.5 µM, DAUDA 0.25 µM, F482 normalized, read-out: % Fluorescence), the remaining activity at 0.6 µM came out at 30.3%. Moreover, the remaining activity at 0.9 µM in data set [1] (lipid 0.9 µM, FABP1 0.5 µM, DAUDA 0.25 µM, F482 normalized) was 21.6%. In data set [1] (lipid 1.15 µM, FABP1 0.5 µM, DAUDA 0.25 µM, F482 normalized), this compound yielded a remaining activity at 1.15 µM of 20.5%. In data set [1] (lipid 1.4 µM, FABP1 0.5 µM, DAUDA 0.25 µM, F482 normalized), this compound registered a remaining activity at 1.4 µM of 19.4%. For the same compound, the remaining activity at 1.9 µM in data set [1] (lipid 1.9 µM, FABP1 0.5 µM, DAUDA 0.25 µM, F482 normalized) worked out at 20.4%. Besides, the off-rate constant (koff) in data set [1] (lipid (S) binding to apo-FABP1 (F), kinetic modeling, on-rate 9.0 × 10^7 M^−1 s^−1, read-out: koff, F + S ↔ FS) turned out to be 4.1 s⁻¹; in data set [1] (lipid binding to DAUDA-bound FABP1 (FD), on-rate 2.3 × 10^7 M^−1 s^−1, read-out: koff, FD + S ↔ FDS) it was 0.24 s⁻¹; in data set [1] (lipid binding to ternary complex FDS (full displacement of DAUDA), read-out: koff, FDS + S ↔ FSS + D), 240 s⁻¹. Besides, the Kd was 0.01 µM in data set [1] (setting [3]), 0.046 µM in data set [1] (setting [4]), 10 µM in data set [1] (setting [5]) and 5200 ± 1600 nM in data set [2]. Also, the “tighter binding of palmitate to FABP1 than to P450 4A11” value in data set [1] (ratio of Kd values) is > 100 fold and 100 fold. In addition, the results for the “P450 heme Soret spectral shift induced” value in data set [2] (listed as Palmitate) and in data set [2] (listed as palmitate) were “classical type I spectral shift” and “type I”, respectively.
